Patent US5624906A, “Oral hygiene compositions comprising heteroatom containing alkyl aldonamide compounds” (Lever Brothers Company, Division of Conopco, Inc., priority 1994, dated 1997)

How the values were obtained:
Type in all cases: physicochemical
[1] = Clarity of prototype surfactant compositions (Example 87); conditions: room temperature; for Appearance: 6 months
Experimental: The prototype shampoo composition is as follows:
The above formulations were prepared by admixing the above ingredients in listed order and heating the mixture to about 80° C. with rapid stirring. The mixture was then cooled to about 40° C., placed in a clear jar and stored at room temperature for 6 months.

[2] = Krafft point; conditions: for Krafft Point (0.1%): 0.1% in water; for Krafft Point (1.0%): 1.0% in water
Experimental: The temperature at and above which surfactants begin to form micelles instead of precipitates is referred to as the Krafft point (Tk) and at this temperature the solubility of a surfactant becomes equal to its CMC (numerical value at which micelles are formed).
The Krafft point was measured by preparing 650 ml of a 0.1% or 1.0% dispersion of aldonamide in water by weight. If the surfactant was soluble at room temperature, the solution was slowly cooled to 0° C. […] (less than zero). If it precipitated out of solution, the temperature at which precipitation occurs was taken as the Krafft point.
If the surfactant was insoluble at room temperature, the dispersion was slowly heated until the solution became homogeneous. It was then slowly cooled until precipitation occurred. The temperature at which the surfactant precipitates out of solution upon cooling was taken as the Krafft point.

[3] = Ross-Miles foam height (Examples 81-84); conditions: for Foam Height Initial / Foam Height Final: 0.1% aldonamide, 40° C. (or 5-10° C. above Krafft point), 0 ppm hardness; for Foam Height Final: after 10 minutes; for Solubility: 0.1% in water
Experimental: In the Ross-Miles method, 200 mL of a surfactant solution contained in a pipette of specified dimensions with a 2.9-mm-i.d. orifice is allowed to fall 90 cm onto 50 mL of the same solution contained in a cylindrical vessel maintained at a given temperature by means of a water jacket. The height of the foam produced in the cylindrical vessel is read immediately after all the solution has run out of the pipette and then again after a given amount of time.
Using this method, the foam production (initial foam height in mm) and foam stability (final foam height after 10 minutes in mm) were measured at 0.1% aldonamide concentration, 40° C. and 0 ppm (parts per million) hardness.

[4] = 3.0% in […] sodium lauryl sulfate
[5] = 5.0% in […] sodium lauryl sulfate

Compound | Appearance [1, 5] | Krafft Point (0.1%) [2] | Foam Height Initial [3] | Foam Height Final [3] | other results
coco D-gluconamide | Precipitate | – | – | – | Appearance [1, 4]: Precipitate; Appearance (Time): time of precipitate ([1]; 3.0%): 1 days; Appearance (Time): time of precipitate ([1]; 5.0%): 0.083 days
CCCCCCCCCNC(=O)[C@H](O)[C@@H](O)[C@H](O)[C@H](O)CO [C9 D-Gluconamide] | Precipitate | 53 °C | 0 mm | 0 mm | Appearance ([1]; 4.0% in […] sodium lauryl sulfate): Precipitate; Appearance (Time): time of precipitate ([1]; 4.0%): 2 weeks; Appearance (Time): time of precipitate ([1]; 5.0%): 2 weeks
dodecyl to pentadecyloxypropyl D-gluconamide [C12 -C15 Oxypropyl D-Gluconamide] | – | 58 °C | 200 mm | 110 mm | –
octyl/decyloxypropyl D-lactobionamide [C8 /C10 Oxypropyl D-Lactobionamide] | Clear | – | 168 mm | 158 mm | Krafft Point (1.0%) [2]: < 0 °C; Appearance [1, 4]: Clear
CCCCCCCCCCCCNC(=O)[C@@H](O)[C@H](O)[C@H](O)[C@@H](O)CO [C12 L-Galactonamide] | – | > 100 °C | – | – | Solubility [3]: Insoluble
CCCCCCCCCCCCCCCCNC(=O)[C@H](O)[C@@H](O)[C@H](O[C@@H]1O[C@H](CO)[C@H](O)[C@H](O)[C@H]1O)[C@H](O)CO [C16 D-Lactobionamide] | – | – | 95 mm | 95 mm | Krafft Point (1.0%) [2]: 64 °C
CCCCCCCCCCCCCCNC(=O)[C@H](O)[C@@H](O)[C@H](O[C@@H]1O[C@H](CO)[C@H](O)[C@H](O)[C@H]1O)[C@H](O)CO [C14 D-Lactobionamide] | – | – | – | 59 mm | Krafft Point (1.0%) [2]: 18 °C
dodecyl to pentadecyloxypropylaminopropyl D-gluconamide | – | < 0 °C | 180 mm | – | –
CCCCCCCCCCCNC(=O)[C@H](O)[C@@H](O)[C@H](O[C@@H]1O[C@H](CO)[C@H](O)[C@H](O)[C@H]1O)[C@H](O)CO [C11 D-Lactobionamide] | – | – | 0 mm | 0 mm | Krafft Point (1.0%) [2]: 61 °C
octyl/decyloxypropyl D-ribonamide [C8 /C10 Oxypropyl D-Ribonamide] | – | 10 °C | 217 mm | 200 mm | –
CCCCCCCCCCNC(=O)[C@H](O)[C@@H](O)[C@H](O)[C@H](O)CO [C10 D-Gluconamide] | Precipitate | 75 °C | – | 6 mm | Appearance [1, 4]: Precipitate
CCCCCCCCCCCCCCCCNC(=O)[C@H](O)[C@@H](O)[C@H](O)[C@H](O)CO [C16 D-Gluconamide] | – | > 100 °C | – | – | Solubility [3]: Insoluble
CCCCCCCCCCCCCCCCCCNC(=O)[C@H](O)[C@@H](O)[C@H](O)[C@H](O)CO [C18 D-Gluconamide] | – | > 100 °C | – | – | Solubility [3]: Insoluble
cocoaminopropyl D-gluconamide | Clear | 18 °C | 186 mm | 182 mm | Appearance [1, 4]: Clear
